Test results: US7087620B2, “Liquid pharmaceutical formulations containing 3,7-diazabicyclo[3,3,1]nonane compounds and methods of treatment relating to anti-arrhythmic events” (Solvay Pharmaceuticals GmbH, priority 2002, dated 2006)

Test system: patients with atrial fibrillation
Test: Placebo-controlled ascending dose study of intravenous tedisamil: conversion to normal sinus rhythm, patients with atrial fibrillation
Type: in vivo, human
Settings: for Conversion to NSR at any time within 2.5 hrs after the start of infusion (patients converted out of total) / Conversion to NSR at any time within 2.5 hrs and remaining in NSR until 2.5 hrs after the start of infusion (patients out of total) / Conversion to NSR at any time within 2.5 hrs and remaining in NSR until 2.5 hrs after the start of infusion (percentage of patients) / Conversion to NSR at any time within 2.5 hrs and remaining in NSR until 24 hrs after the start of infusion (patients out of total) / Conversion to NSR at any time within 2.5 hrs and remaining in NSR until 24 hrs after the start of infusion (percentage of patients) / Conversion to NSR at any time within 24 hrs after the start of infusion (patients out of total) / Conversion to NSR at any time within 24 hrs after the start of infusion (percentage of patients) / Conversion to NSR at any time within 24 hrs and remaining in NSR until 24 hrs after the start of infusion (patients out of total) / Conversion to NSR at any time within 24 hrs and remaining in NSR until 24 hrs after the start of infusion (percentage of patients): patients with atrial fibrillation; for Percentage of patients converted to normal sinus rhythm at any time within 2.5 hours after the initiation of the infusion: patients with atrial fibrillation taking beta-blockers
Description: A Multi-Center, Double-Blind, Randomized, Placebo-Controlled, Sequential Ascending Dose Groups Study to evaluate the Efficacy and Safety of Intravenous Tedisamil in the Rapid Conversion to Normal Sinus Rhythm in Patients with Atrial Fibrillation or Flutter was performed.
• Tedisamil (0.4 mg/kg body weight) • Tedisamil (0.6 mg/kg body weight) • Placebo • Dosages were given as a 30 minute intravenous infusion regimen. 1. Study Design
This multicenter trial was a double-blind, randomized, placebo-controlled, ascending dose groups study comparing the efficacy and safety of intravenous tedisamil treatment versus placebo in symptomatic patients with atrial fibrillation or flutter (>3 hours and <48 hours). The primary efficacy endpoint of this study was the termination of atrial fibrillation or flutter (for at least 60 seconds) within 2.5 hours after start of the infusion.
Following screening and baseline assessments, eligible patients were randomized to tedisamil or placebo with a sequential dose escalation approach. In the first stage, patients received 0.4 mg tedisamil/kg body weight or placebo over a 30 minutes infusion period, with half the dose infused during the first 10 minutes and half the dose infused over the remaining 20 minutes. After interim safety evaluation, in the second stage, patients received 0.6 mg tedisamil/kg body weight or placebo, with the same infusion regimen.
Patients were discharged from the telemetry unit 24 hours post infusion and safety follow up was to be obtained after 28 days. Blinded reviews of 12-lead ECGs (including 60 seconds rhythm strip) and 24 hour Holters to adjudicate the clinical endpoint (conversion to normal sinus rhythm) were performed centrally according to standard guidelines.
Tedisamil dihydrochloride, 0.4 mg/kg body weight, 0.6.mg/kg body weight was administered intravenously. The total infusion time was 30 minutes, with half the dose infused within 10 minutes, and half the dose infused within the remaining 20 minutes.
The percentage of patients converted to normal sinus rhythm (for at least 60 seconds) at any time within 2.5 hours after the initiation of the infusion of study drug.
6.1.2 Secondary Efficacy • The percentage of patients converted to normal sinus rhythm (for at least 60 seconds) at any time within 2.5 hrs and remaining in sinus rhythm until 2.5 hours after initiation of the intravenous infusion of tedisamil versus placebo. • The percentage of patients converted to normal sinus rhythm (for at least 60 seconds) at any time within 24 hours after initiation of the intravenous infusion of tedisamil versus placebo. • The percentage of patients converted to normal sinus rhythm (for at least 60 seconds) at any time within 24 hrs and remaining in sinus rhythm until 24 hours after initiation of the intravenous infusion of tedisamil versus placebo. • The percentage of patients converted to normal sinus rhythm (for at least 60 seconds) at any time within 2.5 hrs and remaining in sinus rhythm until 24 hours after initiation of the intravenous infusion of tedisamil versus placebo. • The time to conversion after the start of the infusion of tedisamil versus placebo. • The dose- and concentration-response relationships of tedisamil versus placebo.
The intent-to-treat patient sample was analyzed for efficacy. All tests were two-sided and a p-value <0.05 was considered significant. Differences in percentages of conversion were compared among the treatment groups using the Pearson chi-square statistic. Safety analysis was conducted on the safety patient sample. Numbers and percentages of patients with adverse events were calculated for each treatment group, using MedDRA preferred terms and body systems. Descriptive statistics were summarized by treatment group for changes from baseline in QT, heart rate and blood pressure. […]

[1] = 0.4 mg/kg iv two-step 30 minute infusion
[2] = 0.6 mg/kg iv two-step 30 minute infusion
[3] = Atrial Fibrillation, Female, 0.4 mg/kg, ITT patient sample, patients with DC cardioversion excluded
[4] = Atrial Fibrillation, Female, 0.6 mg/kg, ITT patient sample, patients with DC cardioversion excluded
[5] = Atrial Fibrillation, Male, 0.4 mg/kg, ITT patient sample, patients with DC cardioversion excluded
[6] = Atrial Fibrillation, Male, 0.6 mg/kg, ITT patient sample, patients with DC cardioversion excluded
[7] = atrial fibrillation, Female, <65 yrs, 0.4 mg/kg, ITT, DC cardioversion excluded
[8] = atrial fibrillation, Female, <65 yrs, 0.6 mg/kg, ITT, DC cardioversion excluded
[9] = atrial fibrillation, Female, >=65 yrs, 0.4 mg/kg, ITT, DC cardioversion excluded
[10] = atrial fibrillation, Female, >=65 yrs, 0.6 mg/kg, ITT, DC cardioversion excluded
[11] = atrial fibrillation, Male, <65 yrs, 0.4 mg/kg, ITT, DC cardioversion excluded
[12] = atrial fibrillation, Male, <65 yrs, 0.6 mg/kg, ITT, DC cardioversion excluded
[13] = atrial fibrillation, Male, >=65 yrs, 0.4 mg/kg, ITT, DC cardioversion excluded
[14] = atrial fibrillation, Male, >=65 yrs, 0.6 mg/kg, ITT, DC cardioversion excluded

Structure (SMILES): C1CCC2(C1)C1CN(CC3CC3)CC2CN(CC2CC2)C1 [Tedisamil, N,N′-dicyclopropylmethyl-9,9-tetramethylene-3,7-diazabicyclo[3,3,1]nonane]
- Conversion to NSR at any time within 2.5 hrs after the start of infusion (patients converted out of total) [1]: 24 out of 52
- Conversion to NSR at any time within 2.5 hrs and remaining in NSR until 2.5 hrs after the start of infusion (patients out of total) [1]: 23 out of 52
- Conversion to NSR at any time within 2.5 hrs and remaining in NSR until 2.5 hrs after the start of infusion (percentage of patients) [1]: (44%)
- Conversion to NSR at any time within 2.5 hrs and remaining in NSR until 24 hrs after the start of infusion (patients out of total) [1]: 22 out of 42
- Conversion to NSR at any time within 2.5 hrs and remaining in NSR until 24 hrs after the start of infusion (percentage of patients) [1]: (52%)
- Conversion to NSR at any time within 24 hrs after the start of infusion (patients out of total) [1]: 26 out of 42
- Conversion to NSR at any time within 24 hrs after the start of infusion (percentage of patients) [1]: (62%)
- Conversion to NSR at any time within 24 hrs and remaining in NSR until 24 hrs after the start of infusion (patients out of total) [1]: 24 out of 42
- Conversion to NSR at any time within 24 hrs and remaining in NSR until 24 hrs after the start of infusion (percentage of patients) [1]: (57%)
- Conversion to NSR at any time within 2.5 hrs after the start of infusion (patients converted out of total) [2]: 24 out of 42
- Conversion to NSR at any time within 2.5 hrs and remaining in NSR until 2.5 hrs after the start of infusion (patients out of total) [2]: 24 out of 42
- Conversion to NSR at any time within 2.5 hrs and remaining in NSR until 2.5 hrs after the start of infusion (percentage of patients) [2]: (57%)
- Conversion to NSR at any time within 2.5 hrs and remaining in NSR until 24 hrs after the start of infusion (patients out of total) [2]: 22 out of 37
- Conversion to NSR at any time within 2.5 hrs and remaining in NSR until 24 hrs after the start of infusion (percentage of patients) [2]: (59%)
- Conversion to NSR at any time within 24 hrs after the start of infusion (patients out of total) [2]: 26 out of 37
- Conversion to NSR at any time within 24 hrs after the start of infusion (percentage of patients) [2]: (70%)
- Conversion to NSR at any time within 24 hrs and remaining in NSR until 24 hrs after the start of infusion (patients out of total) [2]: 24 out of 37
- Conversion to NSR at any time within 24 hrs and remaining in NSR until 24 hrs after the start of infusion (percentage of patients) [2]: (65%)
- Conversion to NSR at any time within 2.5 hrs after start of infusion (%) [3]: 35.3%
- Conversion to NSR at any time within 2.5 hrs after start of infusion (converted/total) [3]: 6/17
- Conversion to NSR at any time within 2.5 hrs after start of infusion (%) [4]: 37.5%
- Conversion to NSR at any time within 2.5 hrs after start of infusion (converted/total) [4]: 6/16
- Conversion to NSR at any time within 2.5 hrs after start of infusion (%) [5]: 51.4%
- Conversion to NSR at any time within 2.5 hrs after start of infusion (converted/total) [5]: 18/35
- Conversion to NSR at any time within 2.5 hrs after start of infusion (%) [6]: 69.2%
- Conversion to NSR at any time within 2.5 hrs after start of infusion (converted/total) [6]: 18/26
- Conversion to NSR at any time within 2.5 hrs after start of infusion (%) [7]: 40.0%
- Conversion to NSR at any time within 2.5 hrs after start of infusion (converted/total) [7]: 2/5
- Conversion to NSR at any time within 2.5 hrs after start of infusion (%) [8]: 33.3%
- Conversion to NSR at any time within 2.5 hrs after start of infusion (converted/total) [8]: 1/3
- Conversion to NSR at any time within 2.5 hrs after start of infusion (%) [9]: 33.3%
- Conversion to NSR at any time within 2.5 hrs after start of infusion (converted/total) [9]: 4/12
- Conversion to NSR at any time within 2.5 hrs after start of infusion (%) [10]: 38.5%
- Conversion to NSR at any time within 2.5 hrs after start of infusion (converted/total) [10]: 5/13
- Conversion to NSR at any time within 2.5 hrs after start of infusion (%) [11]: 50.0%
- Conversion to NSR at any time within 2.5 hrs after start of infusion (converted/total) [11]: 10/20
- Conversion to NSR at any time within 2.5 hrs after start of infusion (%) [12]: 72.2%
- Conversion to NSR at any time within 2.5 hrs after start of infusion (converted/total) [12]: 13/18
- Conversion to NSR at any time within 2.5 hrs after start of infusion (%) [13]: 51.4%
- Conversion to NSR at any time within 2.5 hrs after start of infusion (converted/total) [13]: 8/15
- Conversion to NSR at any time within 2.5 hrs after start of infusion (%) [14]: 62.5%
- Conversion to NSR at any time within 2.5 hrs after start of infusion (converted/total) [14]: 5/8
- Percentage of patients converted to normal sinus rhythm at any time within 2.5 hours after the initiation of the infusion (0.4 mg group): 52%
- Percentage of patients converted to normal sinus rhythm at any time within 2.5 hours after the initiation of the infusion (0.6 mg group): 60%
